Test results taken from PubChem BioAssay (NCI).
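All cell lines were grown in 96-well plates and treated with compound for 48 hours. GI50 = concentration required for 50% inhibition of growth. TGI marks complete inhibition of growth.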

Key:
Experiment in all cases: DTP human tumour cell line panel, 48 h
[1] = tested on: SK-MEL-2 melanoma
[2] = tested on: HT29 colon
[3] = tested on: MDA-MB-435
[4] = tested on: UACC-62 melanoma
[5] = tested on: U251 CNS
[6] = tested on: SK-MEL-5 melanoma
[7] = tested on: BT-549 breast
[8] = tested on: HCC-2998 colon
[9] = tested on: HL-60(TB) leukemia
[10] = tested on: MDA-MB-468 breast
[11] = tested on: NCI-H522 lung
[12] = tested on: CCRF-CEM leukemia
[13] = tested on: MCF7 breast
[14] = tested on: K-562 leukemia
[15] = tested on: DU-145 prostate
[16] = tested on: 786-0 renal
[17] = tested on: CAKI-1 renal
[18] = tested on: NCI-H460 lung
[19] = tested on: SK-OV-3 ovarian
[20] = tested on: SNB-19 CNS
[21] = tested on: SW-620 colon
[22] = tested on: OVCAR-4 ovarian
[23] = tested on: SF-268 CNS
[24] = tested on: SF-295 CNS
[25] = tested on: HCT-15 colon
[26] = tested on: NCI-H226 lung
[27] = tested on: EKVX NSCLC
[28] = tested on: RXF 393 renal
[29] = tested on: COLO 205 colon
[30] = tested on: A549 NSCLC
[31] = tested on: T-47D breast
[32] = tested on: NCI/ADR-RES ovarian
[33] = tested on: SF-539 CNS
[34] = tested on: UACC-257 melanoma
[35] = tested on: SK-MEL-28 melanoma
[36] = tested on: A498 renal
[37] = tested on: M14 melanoma
[38] = tested on: SN12C renal
[39] = tested on: HS 578T breast
[40] = tested on: HOP-62 NSCLC
[41] = tested on: LOX IMVI melanoma
[42] = tested on: MOLT-4 leukemia
[43] = tested on: HOP-92 NSCLC
[44] = tested on: ACHN renal
[45] = tested on: RPMI-8226 leukemia
[46] = tested on: PC-3 prostate
[47] = tested on: SNB-75 CNS
[48] = tested on: OVCAR-3 ovarian
[49] = tested on: MALME-3M melanoma
[50] = tested on: OVCAR-8 ovarian
[51] = tested on: MDA-MB-231 breast
[52] = tested on: OVCAR-5 ovarian
[53] = tested on: UO-31 renal
[54] = tested on: TK-10 renal
[55] = tested on: KM12 colon
[56] = tested on: HCT-116 colon
[57] = tested on: IGROV1 ovarian
[58] = tested on: SR leukemia
[59] = tested on: NCI-H23 lung

O=Cc1cncc(-c2ccc3ncnc(N4CCc5cc(F)c(Cl)cc54)c3c2)c1
GI50 [1]: 12.1 µM | TGI [1]: 28.5 µM | GI50 [2]: 11.1 µM | TGI [2]: 34.8 µM | GI50 [3]: 6.39 µM | TGI [3]: 25.1 µM | GI50 [4]: 2.02 µM | TGI [4]: 12.4 µM | GI50 [5]: 11.1 µM | TGI [5]: 34 µM | GI50 [6]: 4.38 µM | TGI [6]: 17.6 µM | GI50 [7]: 1.77 µM | TGI [7]: 12.5 µM | GI50 [8]: 9.79 µM | TGI [8]: 23.1 µM | GI50 [9]: 2.22 µM | TGI [9]: 22.1 µM | GI50 [10]: 1.22 µM | TGI [10]: 3.21 µM | GI50 [11]: 11 µM | TGI [11]: 30.6 µM | GI50 [12]: 3.08 µM | TGI [12]: 14.9 µM | GI50 [13]: 1.64 µM | TGI [13]: 7.38 µM | GI50 [14]: 7.74 µM | TGI [14]: > 100 µM | GI50 [15]: 3.93 µM | TGI [15]: > 100 µM | GI50 [16]: 2.11 µM | TGI [16]: 16.1 µM | GI50 [17]: 1.31 µM | TGI [17]: 16 µM | GI50 [18]: 4.49 µM | TGI [18]: 20.2 µM | GI50 [19]: 2.66 µM | TGI [19]: 9.59 µM | GI50 [20]: 4.73 µM | TGI [20]: 35 µM | GI50 [21]: 10.3 µM | TGI [21]: 26.1 µM | GI50 [22]: 5.18 µM | TGI [22]: 41.1 µM | GI50 [23]: 5.14 µM | TGI [23]: > 100 µM | GI50 [24]: 3.98 µM | TGI [24]: 21.5 µM | GI50 [25]: 3.41 µM | TGI [25]: 17.2 µM | GI50 [26]: 5.1 µM | TGI [26]: 23.9 µM | GI50 [27]: 1.25 µM | TGI [27]: 8.09 µM | GI50 [28]: 1.23 µM | TGI [28]: 4.32 µM | GI50 [29]: 15.6 µM | TGI [29]: 32.6 µM | GI50 [30]: 2.64 µM | TGI [30]: 17.1 µM | GI50 [31]: 1.31 µM | TGI [31]: 11.1 µM | GI50 [32]: 5.31 µM | TGI [32]: 36.6 µM | GI50 [33]: 3.75 µM | TGI [33]: 18.7 µM | GI50 [34]: 8.62 µM | TGI [34]: 25.9 µM | GI50 [35]: 7.95 µM | TGI [35]: 25.2 µM | GI50 [36]: 0.898 µM | TGI [36]: 6.88 µM | GI50 [37]: 5.51 µM | TGI [37]: 20.9 µM | GI50 [38]: 2.71 µM | TGI [38]: 21.2 µM | GI50 [39]: 1.74 µM | TGI [39]: 8.98 µM | GI50 [40]: 2.47 µM | TGI [40]: 26 µM | GI50 [41]: 3.68 µM | TGI [41]: 17.4 µM | GI50 [42]: 2.45 µM | TGI [42]: 7.06 µM | GI50 [43]: 1.86 µM | TGI [43]: 11.9 µM | GI50 [44]: 1.02 µM | TGI [44]: 13.5 µM | GI50 [45]: 3.14 µM | TGI [45]: 22.6 µM | GI50 [46]: 2.84 µM | TGI [46]: 18.2 µM | GI50 [47]: 1 µM | TGI [47]: 10 µM | GI50 [48]: 2.26 µM | TGI [48]: 34.9 µM | GI50 [49]: 2.72 µM | TGI [49]: 18.6 µM | GI50 [50]: 4.71 µM | TGI [50]: 46.3 µM | GI50 [51]: 4.85 µM | TGI [51]: 25.3 µM | GI50 [52]: 4.01 µM | TGI [52]: 22.1 µM | GI50 [53]: 0.523 µM | TGI [53]: 13.8 µM | GI50 [54]: 1.32 µM | TGI [54]: 10.5 µM | GI50 [55]: 15.4 µM | TGI [55]: 49.3 µM | GI50 [56]: 5.41 µM | TGI [56]: 20.4 µM | GI50 [57]: 1.05 µM | TGI [57]: 4.78 µM | GI50 [58]: 3.77 µM | TGI [58]: 23.7 µM | GI50 [59]: 10.2 µM | TGI [59]: 27.1 µM

Fc1ccccc1CNc1nc(SCCN2CCOCC2)nc2c1cnn2CC(Cl)c1ccc(Br)cc1 (stereo unspecified)
GI50 [1]: 2.9 µM | TGI [1]: 11.7 µM | GI50 [2]: 1.47 µM | TGI [2]: 3.39 µM | GI50 [3]: 4.98 µM | TGI [3]: > 100 µM | GI50 [4]: 2.09 µM | TGI [4]: 5.23 µM | GI50 [5]: 5.93 µM | TGI [5]: > 100 µM | GI50 [6]: 2.87 µM | TGI [6]: 10.7 µM | GI50 [7]: 20.9 µM | TGI [7]: > 100 µM | GI50 [8]: 3.94 µM | TGI [8]: > 100 µM | GI50 [9]: 4.1 µM | TGI [9]: > 100 µM | GI50 [10]: 2.26 µM | TGI [10]: 7 µM | GI50 [11]: 5.16 µM | TGI [11]: > 100 µM | GI50 [12]: 3.34 µM | TGI [12]: > 100 µM | GI50 [13]: 3.58 µM | TGI [13]: > 100 µM | GI50 [14]: 2.55 µM | TGI [14]: > 100 µM | GI50 [15]: 49.6 µM | TGI [15]: > 100 µM | GI50 [16]: 3.31 µM | TGI [16]: 30.6 µM | GI50 [17]: 3.83 µM | TGI [17]: > 100 µM | GI50 [18]: 3.99 µM | TGI [18]: > 100 µM | GI50 [19]: > 100 µM | TGI [19]: > 100 µM | GI50 [20]: 7.08 µM | TGI [20]: > 100 µM | GI50 [21]: 2.05 µM | TGI [21]: 5.39 µM | GI50 [22]: 3.49 µM | TGI [22]: > 100 µM | GI50 [23]: 6.08 µM | TGI [23]: > 100 µM | GI50 [24]: 3.04 µM | TGI [24]: > 100 µM | GI50 [25]: 1.69 µM | TGI [25]: 3.95 µM | GI50 [26]: 3.52 µM | TGI [26]: > 100 µM | GI50 [27]: 5.28 µM | TGI [27]: > 100 µM | GI50 [28]: 1.43 µM | TGI [28]: 5.27 µM | GI50 [29]: 2.8 µM | TGI [29]: 8.12 µM | GI50 [30]: 4.06 µM | TGI [30]: > 100 µM | GI50 [31]: 2.87 µM | TGI [31]: > 100 µM | GI50 [32]: 4.24 µM | TGI [32]: > 100 µM | GI50 [33]: 2.29 µM | TGI [33]: 6.94 µM | GI50 [34]: 3.38 µM | TGI [34]: 79.1 µM | GI50 [35]: 4.99 µM | TGI [35]: > 100 µM | GI50 [36]: 8.94 µM | TGI [36]: > 100 µM | GI50 [37]: 4.19 µM | TGI [37]: > 100 µM | GI50 [38]: 5.93 µM | TGI [38]: > 100 µM | GI50 [39]: 3.6 µM | TGI [39]: > 100 µM | GI50 [40]: 7.35 µM | TGI [40]: > 100 µM | GI50 [41]: 2.6 µM | TGI [41]: 7.91 µM | GI50 [42]: 3.46 µM | TGI [42]: > 100 µM | GI50 [43]: 3.96 µM | TGI [43]: > 100 µM | GI50 [44]: 4.39 µM | TGI [44]: > 100 µM | GI50 [45]: 2.67 µM | TGI [45]: 8.25 µM | GI50 [46]: 3.73 µM | TGI [46]: > 100 µM | GI50 [47]: 2.71 µM | TGI [47]: > 100 µM | GI50 [48]: 37.4 µM | TGI [48]: > 100 µM | GI50 [49]: 2.54 µM | TGI [49]: 6.89 µM | GI50 [50]: 6.36 µM | TGI [50]: > 100 µM | GI50 [51]: 3.6 µM | TGI [51]: > 100 µM | GI50 [52]: > 100 µM | TGI [52]: > 100 µM | GI50 [53]: 3.13 µM | TGI [53]: > 100 µM | GI50 [54]: > 100 µM | TGI [54]: > 100 µM | GI50 [55]: 3.74 µM | TGI [55]: > 100 µM | GI50 [56]: 3.67 µM | TGI [56]: > 100 µM | GI50 [57]: > 100 µM | TGI [57]: > 100 µM | GI50 [58]: 4.8 µM | TGI [58]: > 100 µM | GI50 [59]: 7.76 µM | TGI [59]: > 100 µM
